Reference: US20060293374A1, “Substituted isothiazolones” (priority 2005, published 2006)

Key:
[1] = tested on: TXB2 Released by Human Platelets; experiment: Ionophore and arachidonic acid induced TXB2 released by human platelets (EIA); assay type: cell-based; details: human platelet-rich plasma; for IC50: challenge with calcium ionophore (10 μM) or arachidonic acid (50 μM); for inhibition at 1 µM: test concentration of 1 μM, calcium ionophore or arachidonic acid challenge, read-out: TXB2 percent inhibition
Procedure: Ionophore and Arachidonic Acid Induced TXB2 Released by Human Platelets
The plate was incubated for 15 minutes at 37° C. Following incubation, platelets were challenged with calcium ionophore (final 10 μM) or arachidonic acid (AA) (final 50 μM) and the plate was further incubated at 37° C. for 15 min. The plate was transferred to an ice bed for 5 min in order to stop the reaction. Supernatants were assayed for TXB2 production by EIA (Assay Design Inc) after diluting with assay buffer (Assay Design Inc).

Neutrophil LTB4 = Neutrophil LTB4 assay (calcium ionophore challenge, EIA); assay type: cell-based; details: test concentration of 5 μM, human neutrophils, calcium ionophore 1 μM; for inhibition at 5 µM: Neutrophil, read-out: LTB4 percent inhibition
Procedure: Neutrophils purified from human blood were resuspended in HBSS buffer containing calcium and magnesium to a cell density of 1×10^6/mL. Purified neutrophils were then incubated with test compounds at a test concentration of 5 μM for 15 min at 37° C. Following incubation, the cells were challenged with calcium ionophore (1 μM final) for 15 minutes at 37° C. Negative control wells were incubated with equal volume of vehicle. The reaction was stopped by transferring the plate to ice for 5 minutes. The plate was centrifuged at 1500 RPM for 5 min at 4° C. LTB4 was calculated in cell free supernatants by EIA (Assay Design Inc).

CS(=O)(=O)c1ccc(Cn2sc(Cl)c(Cl)c2=O)cc1 [Cpd 29, 4,5-dichloro-2-(4-methanesulfonyl-benzyl)-isothiazol-3-one]
IC50 [1]: 300 nM
inhibition at 5 µM (Neutrophil LTB4): 64%

O=c1ccsn1Cc1csc2ccccc12 [Cpd 12, 2-benzo[b]thiophen-3-ylmethyl-isothiazol-3-one]
IC50 [1]: 750 nM
inhibition at 5 µM (Neutrophil LTB4): 89%

O=CC#Cc1cccc(Cn2sc(Cl)cc2=O)c1 [Cpd 60, [3-(5-chloro-3-oxo-3H-isothiazol-2-ylmethyl)-phenyl]-propynal]
inhibition at 1 µM [1]: 72%
inhibition at 5 µM (Neutrophil LTB4): 100%

Cc1nc(-c2cccc(-n3sccc3=O)c2)c(Cl)s1 [Cpd 45, 2-[3-(2-methyl-5-chloro-thiazol-4-yl)-phenyl]-isothiazol-3-one]
IC50 [1]: 1800 nM
inhibition at 5 µM (Neutrophil LTB4): 100%

O=c1c(Cl)c(Cl)sn1Cc1ccc(C#Cc2cccc(Cl)c2)cc1 [Cpd 28, 4,5-dichloro-2-[4-(3-chlorophenylethynyl)-benzyl]-isothiazol-3-one]
IC50 [1]: 3500 nM
inhibition at 5 µM (Neutrophil LTB4): 100%

O=c1cc(Cl)sn1Cc1ccc2ccccc2c1 [Cpd 14, 5-chloro-2-naphthalen-2-ylmethyl-isothiazol-3-one]
IC50 [1]: 350 nM
inhibition at 5 µM (Neutrophil LTB4): 96%

C#Cc1ccc(Cn2sc(Cl)cc2=O)cc1 [Cpd 40, 5-chloro-2-(4-ethynyl-benzyl)-isothiazol-3-one]
IC50 [1]: 200 nM
inhibition at 5 µM (Neutrophil LTB4): 100%

O=c1ccsn1Cc1cccc(-c2ccncc2)c1 [Cpd 50, 2-(3-pyridin-4-yl-benzyl)-isothiazol-3-one]
IC50 [1]: 500 nM
inhibition at 5 µM (Neutrophil LTB4): 100%

O=c1[nH]sc(Cl)c1Cc1csc(-c2cccs2)n1 [Cpd 62, 5-chloro-(2-thiophen-2-yl-thiazol-4-ylmethyl)-isothiazol-3-one]
IC50 [1]: 800 nM
inhibition at 5 µM (Neutrophil LTB4): 96%

Cc1nc(-c2ccc(Cn3sc(Cl)cc3=O)cc2)cs1 [Cpd 31, 5-chloro-2-[4-(2-methyl-thiazol-4-yl)-benzyl]-isothiazol-3-one]
inhibition at 1 µM [1]: 54%
inhibition at 5 µM (Neutrophil LTB4): 88%

O=c1cc(Cl)sn1Cc1csc(-c2ccccc2)n1 [Cpd 53, 5-chloro-2-(2-phenyl-thiazol-4-ylmethyl)-isothiazol-3-one]
IC50 [1]: 400 nM
inhibition at 5 µM (Neutrophil LTB4): 92%

O=c1cc(Cl)sn1Cc1csc2ccc(Cl)cc12 [Cpd 19, 5-chloro-2-(5-chloro-benzo[b]thiophen-3-ylmethyl)-isothiazol-3-one]
IC50 [1]: 1000 nM
inhibition at 5 µM (Neutrophil LTB4): 100%

O=c1ccsn1Cc1ccc2ccccc2c1 [Cpd 13, 2-naphthalen-2-ylmethyl-isothiazol-3-one]
IC50 [1]: 1300 nM
inhibition at 5 µM (Neutrophil LTB4): 78%

Cc1nc(-c2cccc(-n3sc(Cl)cc3=O)c2)c(Cl)s1 [Cpd 44, 5-chloro-2-[3-(2-methyl-5-chloro-thiazol-4-yl)-phenyl]-isothiazol-3-one]
IC50 [1]: 2000 nM
inhibition at 5 µM (Neutrophil LTB4): 69%

O=c1cc(Cl)sn1Cc1ccc(S(=O)(=O)c2ccccc2)cc1 [Cpd 38, 5-chloro-2-(4-benzenesulfonyl-benzyl)-isothiazol-3-one]
IC50 [1]: 900 nM
inhibition at 5 µM (Neutrophil LTB4): 93%

O=c1ccsn1Cc1csc(-c2ccccc2)n1 [Cpd 54, 2-(2-phenyl-thiazol-4-ylmethyl)-isothiazol-3-one]
IC50 [1]: 1500 nM
inhibition at 5 µM (Neutrophil LTB4): 96%

CC(=O)c1ccc(Cn2sccc2=O)cc1 [Cpd 25, 2-(4-acetylbenzyl)-isothiazol-3-one]
IC50 [1]: 1000 nM
inhibition at 5 µM (Neutrophil LTB4): 54%

O=c1ccsn1Cc1nc(-c2cccs2)sc1Cl [Cpd 63, 2-(5-chloro-2-thiophen-2-yl-thiazol-4-ylmethyl)-isothiazol-3-one]
inhibition at 1 µM [1]: 42%
inhibition at 5 µM (Neutrophil LTB4): 86%

O=c1cc(Cl)sn1Cc1nc(-c2ccccc2)sc1Cl [Cpd 52, 5-chloro-2-(5-chloro-2-phenyl-thiazol-4-ylmethyl)-isothiazol-3-one]
IC50 [1]: 400 nM
inhibition at 5 µM (Neutrophil LTB4): 81%

O=c1ccsn1Cc1csc2ccc(Cl)cc12 [Cpd 20, 2-(5-chloro-benzo[b]thiophen-3-ylmethyl)-isothiazol-3-one]
IC50 [1]: 1000 nM
inhibition at 5 µM (Neutrophil LTB4): 88%

O=c1cc(Cl)sn1Cc1cccc2ccccc12 [Cpd 1, 5-chloro-2-naphthalen-1-ylmethyl-isothiazol-3-one]
IC50 [1]: 3000 nM
inhibition at 5 µM (Neutrophil LTB4): 99%

O=c1c(Cl)c(Cl)sn1[C@H]1C[C@@H]1c1ccccc1 [Cpd 39, (1S,2R)-4,5-dichloro-2-(2-phenyl-cyclopropyl)-isothiazol-3-one]
IC50 [1]: 200 nM
inhibition at 5 µM (Neutrophil LTB4): 94%

C=Cc1ccc(Cn2sc(Cl)cc2=O)cc1 [Cpd 27, 5-chloro-2-(4-vinyl-benzyl)-isothiazol-3-one]
IC50 [1]: 800 nM
inhibition at 5 µM (Neutrophil LTB4): 100%

O=C(c1ccccc1)c1ccc(Cn2sc(Cl)c(Cl)c2=O)cc1 [Cpd 34, 4,5-dichloro-2-(4-benzoylbenzyl)-isothiazol-3-one]
IC50 [1]: 400 nM
inhibition at 5 µM (Neutrophil LTB4): 84%

CCCCCS(=O)(=O)c1ccc(Cn2sc(Cl)cc2=O)cc1 [Cpd 41, 5-chloro-2-[4-(pentane-1-sulfonyl)-benzyl]-isothiazol-3-one]
IC50 [1]: 500 nM
inhibition at 5 µM (Neutrophil LTB4): 100%

O=c1cc(Cl)sn1Cc1nc(-c2cccs2)sc1Cl [Cpd 61, 5-chloro-2-(5-chloro-2-thiophen-2-yl-thiazol-4-ylmethyl)-isothiazol-3-one]
inhibition at 1 µM [1]: 49%
inhibition at 5 µM (Neutrophil LTB4): 100%

O=c1cc(Cl)sn1Cc1ccc(-n2cccn2)cc1 [Cpd 56, 5-chloro-2-(4-pyrazol-1-yl)-benzyl-isothiazol-3-one]
IC50 [1]: 800 nM
LTB4 percent inhibition (Neutrophil LTB4): 48%

O=c1c(Cl)c(Cl)sn1Cc1ccc2ccccc2c1 [Cpd 15, 4,5-dichloro-2-naphthalen-2-ylmethyl-isothiazol-3-one]
IC50 [1]: 330 nM
inhibition at 5 µM (Neutrophil LTB4): 75%

O=c1cc(Cl)sn1Cc1ccc(S(=O)(=O)c2ccc(F)cc2)cc1 [Cpd 36, 5-chloro-2-[4-(4-fluoro-benzenesulfonyl)-benzyl]-isothiazol-3-one]
IC50 [1]: 500 nM
inhibition at 5 µM (Neutrophil LTB4): 56%

O=c1cc(Cl)sn1Cc1cccc(-c2csnn2)c1 [Cpd 32, 5-chloro-2-(3-[1,2,3]thiadiazol-4-ylbenzyl)-isothiazol-3-one]
IC50 [1]: 600 nM
inhibition at 5 µM (Neutrophil LTB4): 100%

CC(c1ccc(S(C)(=O)=O)cc1)n1sc(Cl)c(Cl)c1=O (stereo not drawn) [Cpd 30, 4,5-dichloro-2-[1-(4-methanesulfonyl-phenyl)-ethyl]-isothiazol-3-one]
IC50 [1]: 200 nM
inhibition at 5 µM (Neutrophil LTB4): 100%

O=c1cc(Cl)sn1Cc1csc2ccccc12 [Cpd 11, 2-benzo[b]thiophen-3-ylmethyl-5-chloro-isothiazol-3-one]
inhibition at 1 µM [1]: 68%
inhibition at 5 µM (Neutrophil LTB4): 100%

O=c1ccsn1Cc1ccc2c(c1)CCO2 [Cpd 17, 2-(2,3-dihydro-benzofuran-5-ylmethyl)-isothiazol-3-one]
IC50 [1]: 5800 nM
inhibition at 5 µM (Neutrophil LTB4): 39%

O=c1cc(Cl)sn1Cc1ccc(-c2ccco2)cc1 [Cpd 23, 5-chloro-2-(4-furan-2-yl-benzyl)-isothiazol-3-one]
IC50 [1]: 300 nM
inhibition at 5 µM (Neutrophil LTB4): 100%

O=c1ccsn1Cc1ccc(-n2cccn2)cc1 [Cpd 58, 2-(4-pyrazol-1-yl)-benzyl-isothiazol-3-one]
IC50 [1]: 1000 nM
LTB4 percent inhibition (Neutrophil LTB4): 100%

O=c1c(Cl)c(Cl)sn1Cc1csc2ccc(Cl)cc12 [Cpd 18, 4,5-dichloro-2-(5-chloro-benzo[b]thiophen-3-ylmethyl)-isothiazol-3-one]
IC50 [1]: 280 nM
inhibition at 5 µM (Neutrophil LTB4): 71%

O=c1cc(Cl)sn1C1CCc2ccccc21 (stereo not drawn) [Cpd 3, 5-chloro-2-indan-1-yl-isothiazol-3-one]
IC50 [1]: 900 nM
inhibition at 5 µM (Neutrophil LTB4): 86%

O=c1c(Cl)c(Cl)sn1C(c1ccccc1)c1ccccn1 (stereo not drawn) [Cpd 33, 4,5-dichloro-2-(phenyl-pyridin-2-yl-methyl)-isothiazol-3-one]
IC50 [1]: 200 nM
inhibition at 5 µM (Neutrophil LTB4): 95%

CC(c1cccc2ccccc12)n1sc(Cl)cc1=O (stereo not drawn) [Cpd 5, 5-chloro-2-(1-naphthalen-1-yl-ethyl)-isothiazol-3-one]
IC50 [1]: 600 nM
inhibition at 5 µM (Neutrophil LTB4): 100%

O=c1c(Cl)c(Cl)sn1Cc1csc2ccccc12 [Cpd 10, 2-benzo[b]thiophen-3-ylmethyl-4,5-dichloro-isothiazol-3-one]
inhibition at 1 µM [1]: 84%
inhibition at 5 µM (Neutrophil LTB4): 100%

N#Cc1cccc(C#Cc2ccc(Cn3sc(Cl)cc3=O)cc2)c1 [Cpd 43, 3-[4-(5-chloro-3-oxo-3H-isothiazol-2ylmethyl)-phenylethynyl]-benzonitrile]
IC50 [1]: 1600 nM
inhibition at 5 µM (Neutrophil LTB4): 100%

O=c1cc(Cl)sn1[C@H]1C[C@@H]1c1ccccc1 [Cpd 42, (1S,2R)-5-chloro-2-(2-phenyl-cyclopropyl)-isothiazol-3-one]
IC50 [1]: 400 nM
inhibition at 5 µM (Neutrophil LTB4): 61%

O=Cc1cccc(Cn2sc(Cl)cc2=O)c1 [Cpd 59, 5-chloro-2-(3-formylbenzyl)-isothiazol-3-one]
IC50 [1]: 600 nM
inhibition at 5 µM (Neutrophil LTB4): 96%

CC(=O)c1ccc(Cn2sc(Cl)c(Cl)c2=O)cc1 [Cpd 65, 4,5-dichloro-2-(4-acetylbenzyl)-isothiazol-3-one]
IC50 [1]: 400 nM
inhibition at 5 µM (Neutrophil LTB4): 45%

O=C(c1ccccc1)c1ccc(Cn2sc(Cl)cc2=O)cc1 [Cpd 35, 5-chloro-2-(4-benzoylbenzyl)-isothiazol-3-one]
IC50 [1]: 60 nM
inhibition at 5 µM (Neutrophil LTB4): 100%
